These results are taken from ChEMBL document CHEMBL5365519, “Design and Characterization of 1,3-Dihydro-2H-benzo[d]azepin-2-ones as Rule-of-5 Compliant Bivalent BET Inhibitors” (ACS Med Chem Lett, 2023).

Data set [1] deals with T1, C-C motif chemokine 2 (Homo sapiens, UniProt P13500). The data set is described as follows: Inhibition of MCP-1 in LPS-stimulated human whole blood pretreated with compound for 30 mins followed by LPS-stimulation and measured after 10 mins by microplate analysis. The format is tissue-based.
For data set [2], the target named is T1, C-C motif chemokine 2. The data set is described as follows: Inhibition of MCP-1 in LPS-stimulated human PBMC cells pretreated with compound for 30 mins followed by LPS-stimulation and measured after 10 mins by microplate analysis. The format is cell-based.
Data set [3] can be described thus: Antiproliferative activity against human NMC 11060 cell assessed as inhibition of cell growth incubated for 72 hrs by cell-titer glo assay. The following applies: NMC 11060, 72 h. In kind it is functional, cell-based.
A further data set concerns HL-60. The experiment in a line: Antiproliferative activity against human HL-60 cells assessed as inhibition of cell growth incubated for 72 hrs by cell-titer glo assay. In kind it is functional, cell-based. The following applies: HL-60, 72 h.
The target in data set [4] is T2, Bromodomain-containing protein 4 (Homo sapiens, UniProt O60885). The data set is described as follows: Inhibition of BRD4 BD2 (unknown origin) by TR-FRET assay. (In general: Time-resolved FRET reads energy transfer from a long-lived donor to a nearby acceptor.)
Data set [5] addresses T2, Bromodomain-containing protein 4. The experiment in a line: Inhibition of histone binding to BRD4 (unknown origin) expressed in HEK293 cells using histone H3.3 as substrate incubated for 18 to 24 hrs by nano-BRET analysis. The format is cell-based. (In general: BRET reads energy transfer from a luciferase to a nearby fluorophore.)
The target is the same in data set [6]. The data set is described as follows: Inhibition of halo-tagged BRD4 (unknown origin) expressed in HEK293 cells incubated for 4 hrs by biosensor assay. In kind it is cell-based.
Data set [7] has the same target. The experiment in a line: Inhibition of BRD4 BD1 (unknown origin) by TR-FRET assay.
Data set [8] can be described thus: Lipophilicity, logD of compound at pH 7.4 by HPLC analysis. The format is physicochemical. As to conditions: buffer.
Data set [9] can be described thus: Solubility of compound in simulated lung fluid at pH 6.9. The format is physicochemical.
For another data set, the system named is MV4-11. The experiment in a line: Antiproliferative activity against human MV4-11 cells assessed as inhibition of cell growth incubated for 72 hrs by cell-titer glo assay. The format is functional, cell-based. The following applies: MV4-11, 72 h.

In brackets after ≈: the same amount, converted by molar mass.

T1 sequence (P13500 whole entry): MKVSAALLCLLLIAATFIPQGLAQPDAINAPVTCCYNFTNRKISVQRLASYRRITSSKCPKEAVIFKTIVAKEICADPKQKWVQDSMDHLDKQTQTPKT

The term IC50 denotes the concentration that gives 50% inhibition. On to `Cc1sc2c(c1C)C(c1ccc(Cl)cc1)=N[C@@H](CC(=O)OC(C)(C)C)c1nnc(C)n1-2`, for which the IC50 was 631 nM on C-C motif chemokine 2 [1] and 6.31 nM at C-C motif chemokine 2 [2].

Consider `COc1cc2c(cc1-c1c(C)noc1C)ncc1[nH]c(=O)n([C@H](C)c3ccccn3)c12`, for which the IC50 is 200 nM at C-C motif chemokine 2 [1], 39.8 nM on C-C motif chemokine 2 [2], 631 nM in [3] and 126 nM in the data set on HL-60.

Regarding `COCC(COC)n1c(-c2cc(C)c(=O)n(C)c2)nc2cc(N3CCOCC3)ccc21`, the IC50 at C-C motif chemokine 2 [1] was 25.1 nM; at C-C motif chemokine 2 [2], 7.94 nM.

A word on the EC50: it is the concentration at which the effect is half-maximal. As for `C[C@@H]1C(=O)N(C)CCN1CCOc1ccc(C2CCN(c3ccc4nncn4n3)CC2)cc1`, the IC50 in data set [4] is 39800 nM; in data set [5], 398 nM; at C-C motif chemokine 2 [1] it was 2000 nM; at C-C motif chemokine 2 [2], 200 nM; in [7], 25100 nM. In addition, in data set [6], the EC50 is 1000 nM.

Consider `COc1cc2c(cc1OC)[C@@H](C)C(=O)N(C)C=C2`, for which the 50% inhibitory concentration (IC50) at C-C motif chemokine 2 [1] is 1000 nM; on C-C motif chemokine 2 [2], 50.1 nM.

As usually defined, the logD is the decadic logarithm of the distribution of all forms, ionised or not, between an organic phase and buffer at a given pH. Low values mean lower lipophilicity, high ones higher lipophilicity. What is called solubility is the dissolved amount per volume that the medium holds. Low readings indicate little dissolved substance, high ones much dissolved substance. `C[C@H]1C(=O)N(C)C=Cc2cc(OCCCCCOc3ccc4c(c3)C=CN(C)C(=O)[C@@H]4C)ccc21`: the IC50 is 20 nM in [4]; 0.631 nM in [5]; 12.6 nM at C-C motif chemokine 2 [1]; under 2 nM on C-C motif chemokine 2 [2]; 39.8 nM in data set [7]. It took 7.94 nM to reach a half-maximal effect in data set [6] (EC50). In data set [8], this compound gave a logD of 7.4. In data set [9], this compound gave a solubility of under 1 µg/mL.

For the compound `C[C@H]1C(=O)N(C)C=Cc2cc(OCCCCCCCOc3ccc4c(c3)C=CN(C)C(=O)[C@@H]4C)ccc21`, the IC50 in [4] is 39.8 nM; in data set [5], 1 nM; on C-C motif chemokine 2 [1] it was 79.4 nM; on C-C motif chemokine 2 [2], under 2 nM; in data set [7] it was 79.4 nM. For the same compound, in data set [6], the response was half-maximal at 3.98 nM (EC50). The logD in data set [8] was 8.5.

In the case of `CC1C(=O)N(C)C=Cc2ccc(OCCCCCCOc3ccc4c(c3)C(C)C(=O)N(C)C=C4)cc21` (configuration not stated), the IC50 in [4] is at least 1580 nM; in data set [5], over 1000 nM; at C-C motif chemokine 2 [1] it was 3980 nM; in data set [7], 3160 nM. In data set [6], this compound gave an EC50 of 1000 nM.

With `C[C@H]1C(=O)N(C)C=Cc2cc(OCCOc3ccc4c(c3)C=CN(C)C(=O)[C@@H]4C)ccc21`, the IC50 was 31.6 nM in [4]; 0.631 nM in data set [5]; 126 nM at C-C motif chemokine 2 [1]; 0.251 nM at C-C motif chemokine 2 [2]; 63.1 nM in data set [7]. In data set [6], this compound showed an EC50 of 1.26 nM. Further, the logD in data set [8] was determined as 5.8.

Regarding `C[C@H]1C(=O)N(C)C=Cc2cc(OCCCCOc3ccc4c(c3)C=CN(C)C(=O)[C@@H]4C)ccc21`, the IC50 in [4] is 6.31 nM; in data set [5], 0.316 nM; on C-C motif chemokine 2 [1], 5.01 nM; in the data set on MV4-11, 0.501 nM; at C-C motif chemokine 2 [2], 0.0398 nM; in [3], 0.794 nM. For the same compound, the IC50 in data set [7] was 3.16 nM; with HL-60, 0.398 nM. For the same compound, the midpoint of the response in data set [6], the EC50, lay at 1.58 nM. For the same compound, in data set [8], the logD was determined as 7.1. The same compound showed a solubility in data set [9] of 2 µg/mL (≈ 4.34 µM).

On to `C[C@H]1C(=O)N(C)C=Cc2cc(OCCCOc3ccc4c(c3)C=CN(C)C(=O)[C@@H]4C)ccc21`, for which the IC50 in [4] was 39.8 nM; in data set [5], 15.8 nM; at C-C motif chemokine 2 [1], 50.1 nM; at C-C motif chemokine 2 [2], under 2 nM; in data set [7], 100 nM. Further, the EC50 in data set [6] was 2.51 nM. The compound also had a logD in data set [8] of 6.7. In data set [9], the solubility was under 1 µg/mL.

Consider `CC1C(=O)N(C)C=Cc2ccc(OCCCCCOc3ccc4c(c3)C(C)C(=O)N(C)C=C4)cc21` (configuration not stated), for which the IC50 in data set [4] is 3980 nM; on C-C motif chemokine 2 [1], 15800 nM; in data set [7] it was 631 nM. In [8], this compound gave a logD of 7.5.

Regarding `C[C@H]1C(=O)N(C)C=Cc2cc(CN3CCN(Cc4ccc5c(c4)C=CN(C)C(=O)[C@@H]5C)CC3)ccc21`, the IC50 in data set [4] is 25.1 nM; in [5], 0.501 nM; at C-C motif chemokine 2 [1] it was 6.31 nM; on C-C motif chemokine 2 [2] it was under 0.2 nM; in [7], 15.8 nM. In [6], this compound gave an EC50 of 2 nM. The compound also gave a logD in data set [8] of 5.43. In data set [9], this compound had a solubility of 465 µg/mL (≈ 959 µM).

For the compound `COc1nnc2ccc(N3CCC(c4ccc(OCCN5CCN(C)C(=O)[C@H]5C)cc4)CC3)nn12` [AZD-5153], the IC50 was 3160 nM in [4]; 15.8 nM in data set [5]; 15.8 nM at C-C motif chemokine 2 [1]; 3.16 nM on C-C motif chemokine 2 [2]; 398 nM in data set [7]. Besides, the midpoint of the response in data set [6], the EC50, lay at 15.8 nM.

The term pIC50 denotes the IC50 on a negative log10 scale, so that one unit is a factor of ten. In the case of `CC(=O)Nc1c(F)cc(C(=O)N[C@H]2CC[C@H](O)CC2)cc1O[C@@H](C)c1ccccc1` [GSK046], on C-C motif chemokine 2 [2] (pbmc), the pIC50 was 7.5.

Take `COCc1nc2cnc3cc(-c4c(C)noc4C)c(OC[C@H]4CCNC4)cc3c2n1[C@H](C)c1ccccc1` [GSK778]: the IC50 on C-C motif chemokine 2 [1] is 158 nM.
